The text below walks through data of patent US10807960B2, “Compounds, compositions, and methods for controlling biofilms” (KATHOLIEKE UNIVERSITEIT LEUVEN, priority 2015, dated 2020).

Molecules are shown by their SMILES. Where two headings read alike, the source gives them in different places.

For one data set, the system named is C. albicans SC5314. As to the kind of experiment: inhibition of C. albicans biofilms, cell titer blue (CTB) quantification. The note with it: monospecies biofilm; novel compounds: highest concentration tested 100 μM. It counts as cell-based, Candida albicans. As for the experimental part:
The potential of the compounds to prevent C. albicans SC5314 biofilm formation was assessed using the cell titer blue (CTB) quantification method (26). For the CTB method, an overnight culture of C. albicans SC5314 was washed with PBS and a cell suspension of 10^6 cells/ml (OD600=0.1) was prepared in RPMI 1640 medium (pH 7.0). […] After 16 h of static incubation at 37° C., biofilms were washed and quantified with CTB as described previously.
On the technique in general: Resazurin is reduced to fluorescent resorufin, in cell work by metabolically active cells.

In data set [1] the test system is C. albicans SC5314 + S. epidermidis. Nature of the data set: mixed C. albicans/S. epidermidis biofilm assay, selective plating. It counts as cell-based, Candida albicans; Staphylococcus epidermidis. The settings on record: for activity at 25 µM: 25 μM (Table 5); for activity at 100 µM: 100 μM (Table 5). The method, then:
The concentrations 25 μM (0.0625% DMSO or ethanol) and 100 μM (0.25% DMSO or ethanol) were tested. After 24 h of incubation at 37° C., biofilms were washed with PBS and fresh medium with or without compounds was added. After further incubation for 48 h at 37° C., the biofilms were washed with PBS after which the cells were re-suspended in 100 μl of PBS by scraping off, sonication (1 min, 45 kHz, USC300-T; VWR, Radnor, Pa., USA) and vigorously pipetting up-and-down. Finally, the biofilm cells were diluted in PBS and plated on YPD agar plates containing 100 mg/L ampicillin and TSA plates containing 25 mg/L amphotericin B, to determine the number of fungal and bacterial CFUs after 2 days of incubation at 37° C., respectively. The percentage of C. albicans SC5314 and S. epidermidis cells was determined relative to the DMSO or ethanol control treatment.

Data set [2] relates to osteoblasts (OB). Nature of the data set: mammalian-cell viability assay, trypan blue staining. It counts as cell-based. The note with it: 12.5 μM; for proliferation (in words): 6 days exposure. As for the experimental part:
(§1) Cell viability of two human primary cell types, namely, osteoblasts (OB) and bone-marrow derived mesenchymal stem cells (MSC) was tested according to the ISO 10993-5 standard, as previously described. Briefly, cells were seeded in 96-well tissue culture test plates (TPP, Switzerland) at 5×10^3 cells/cm^2 in Advanced DMEM cell culture media supplemented with 10% serum, 1× GlutaMAX, 0.05 mg/mL Gentamycin, and were allowed to attach overnight. The next day, the cells were exposed to (i) cell culture medium and medium with the corresponding control (0.5% ethanol or DMSO) (negative controls), (ii) medium with 0.05% phenol (cytotoxic control), and (iii) medium with compounds (12.5 μM) and incubated for 2 h, 48 h and 6 days (8 repeats for each condition). At each time-point the numbers of viable and dead cells were determined directly by trypan blue staining, and indirectly by measuring the metabolic activity with MTT (3-(4,5-dimethylthiazol-2-yl)-2,5-diphenyltetrazolium bromide) staining.
(§2) The medium was removed from the wells, and 1/3 trypan blue in Dulbecco's modified Eagle's medium (DMEM) was added to the cells, incubated for 3 min, after which trypan blue was removed and DMEM medium was added to the wells. In each of four wells, two microscopy fields were counted for viable (transparent) and dead (blue) cells.

Data set [3] concerns bone-marrow derived mesenchymal stem cells (MSC). Nature of the data set: metabolic activity, MTT staining. It counts as cell-based. The note with it: 12.5 μM, 6 days treatment. The method, then: as §1
(§3) The medium was removed from the wells and 100 μl of medium, supplemented with 10% serum and 0.5 mg/mL MTT was added to the cells. The cells were incubated overnight at 37° C. and 5% CO2. The next day the medium with MTT was removed and 100 μl acidic isopropanol was added. The cells were then centrifuged at 2300 g and 50 μl of the supernatant was transferred to a new 96-well plate. The absorbance was measured at 570 nm and the background was measured at 660 nm. Four wells per condition were examined.

For data set [4], the system named is osteoblasts (OB). As to the kind of experiment: metabolic activity, MTT staining. The note with it: 12.5 μM, 6 days treatment. Type of data set: cell-based. As for the experimental part:
as §1, §3

For data set [5], the system named is bone-marrow derived mesenchymal stem cells (MSC). Nature of the data set: osteogenic differentiation, calcium and DNA assay. It counts as cell-based, human. The note with it: 12.5 μM, calcium content normalized by DNA, versus solvent control. As for the experimental part:
(§4) The effect on osteogenic differentiation potential was assessed as previously described. Only the substances that allowed survival of the cells for more than 3 weeks, which is the time needed for mature osteogenic differentiation, were tested. Briefly, osteoblasts and bone-marrow derived mesenchymal stem cells were cultured in a positive solvent control (osteogenic medium with 0.5% DMSO or ethanol background), a negative control (medium without osteogenic supplements) and treated samples (osteogenic medium, 0.5% DMSO or ethanol background and 12.5 μM of test compound) with four repeats per condition. Mesenchymal stem cells and osteoblast cell cultures were harvested after 3 or 5 weeks, respectively, for the calcium and DNA assay.
(§5) Calcium deposition of osteoblasts and mesenchymal stem cells was measured with the Calcium CPC LiquiColor test (Stanbio Laboratory, Boerne, Tex.) as previously described. Briefly, cell cultures were extracted with 5% trichloroacetic acid (500 μl per sample), O-cresolphtalein complex was added, and the calcium content was determined spectrophotometrically at 550 nm. DNA content was determined as previously described. DNA values were used to normalize the calcium content. Four wells per condition were examined, and two samples from each well were taken for each assay.

Data set [6] has as its system osteoblasts (OB). As to the kind of experiment: osteogenic differentiation, calcium and DNA assay. The note with it: 12.5 μM, calcium content normalized by DNA, versus solvent control. Type of data set: cell-based, human. The method, then: as §4, §5
For data set [7], the system named is bone-marrow derived mesenchymal stem cells (MSC). As to the kind of experiment: mammalian-cell viability assay, trypan blue staining. It counts as cell-based. The note with it: 12.5 μM, 6 days exposure. The method, then:
as §1, §2

[8] abbreviates: C. albicans in mixed biofilm with S. epidermidis, read-out: CFUs % survival C.a.
Setting [9] is: S. epidermidis in mixed biofilm with C. albicans, read-out: CFUs % survival S.c.
The mark [10] stands for this setting: S. epidermidis in mixed biofilm with C. albicans, read-out: CFUs % survival Se.

For the compound `CCCCCCCCn1c(-c2ccc(Br)cc2)cnc1NCC(C)C` [Compound 8c, 5-(4-bromophenyl)-N-isobutyl-1-octyl-1H-imidazol-2-amine], the “anti-biofilm activity (in words)” value in the data set with C. albicans SC5314 is recorded as “not active”. In addition, in data set [1], the “effect on the C. albicans/S. epidermidis mixture (in words)” value was “only reduced C. albicans”. The activity at 25 µM in data set [1] (setting [8]) came to 3.2%. Further, in data set [1] (setting [8]), the activity at 100 µM was determined as 8.4%. Further, in the data set on osteoblasts (OB) [2], the “proliferation (in words)” value is listed as “increase in proliferation”. The “cell viability (in words)” value in the data set with osteoblasts (OB) [2] (6 days of exposure, trypan blue) is listed as “very slightly reduced viability”. The “metabolic activity compared to the solvent control (in words)” value (in data set [3]; in the data set on osteoblasts (OB) [4]) was “increased” throughout. The “calcium deposition (in words)” value (in data set [5]; in the data set on osteoblasts (OB) [6]) was “induced the calcium deposition” throughout.

In the case of `CCCCCCCCn1c(-c2ccc(Cl)c(Cl)c2)cnc1NCC(C)C` [Compound 8d, 5-(3,4-dichlorophenyl)-N-isobutyl-1-octyl-1H-imidazol-2-amine], in the data set on C. albicans SC5314, the “anti-biofilm activity (in words)” value is reported as “not active”. The “effect on the C. albicans/S. epidermidis mixture (in words)” value in data set [1] is listed as “only reduced C. albicans”. In addition, the activity at 25 µM in data set [1] (setting [8]) came out at 2.5%. The activity at 100 µM in data set [1] (setting [8]) was determined as 1.4%. For the same compound, the “proliferation (in words)” value (in data set [7]; in the data set on osteoblasts (OB) [2]) was “increase in proliferation” throughout. For the same compound, the “metabolic activity compared to the solvent control (in words)” value (in data set [3]; in the data set on osteoblasts (OB) [4]) was “increased” each time. The “calcium deposition (in words)” value (in data set [5]; with osteoblasts (OB) [6]) was “none of the compounds negatively affected the calcium deposition” throughout.

As for `CCCCCCCCn1c(-c2ccc(Br)cc2)cnc1NC1CCCC1` [Compound 8g, 5-(4-bromophenyl)-N-cyclopentyl-1-octyl-1H-imidazol-2-amine], the activity at 25 µM in data set [1] (setting [8]) turned out to be 3.3%; in data set [1] (setting [9]), 0%. Further, the activity at 100 µM in data set [1] (setting [8]) was 5.9%; in data set [1] (setting [10]) it was 0%. The “proliferation (in words)” value in data set [7] is “slightly reduced”; with osteoblasts (OB) [2], “increase in proliferation”. Further, the “metabolic activity compared to the solvent control (in words)” value (in data set [3]; with osteoblasts (OB) [4]) was “increased” in each case. Moreover, the “calcium deposition (in words)” value (in data set [5]; in the data set with osteoblasts (OB) [6]) was “induced the calcium deposition” throughout.

`CCCCCCCCn1c(-c2ccc(Cl)c(Cl)c2)cnc1NC1CCCC1` [Compound 8h, 5-(3,4-dichlorophenyl)-N-cyclopentyl-1-octyl-1H-imidazol-2-amine]: the “anti-biofilm activity (in words)” value in the data set with C. albicans SC5314 is “not active”. Moreover, the activity at 25 µM was found to be 6.7% in data set [1] (setting [8]) and 2% in data set [1] (setting [9]). In addition, the activity at 100 µM worked out at 3.5% in data set [1] (setting [8]) and 2.2% in data set [1] (setting [10]). Moreover, the “proliferation (in words)” value in the data set with osteoblasts (OB) [2] was “increase in proliferation”. For the same compound, the “metabolic activity compared to the solvent control (in words)” value (in data set [3]; with osteoblasts (OB) [4]) was “increased” in each case. For the same compound, the “calcium deposition (in words)” value (in data set [5]; in the data set with osteoblasts (OB) [6]) was “induced the calcium deposition” throughout.
